The values that follow come from PMC5666896, “Molecular Docking and Screening Studies of New Natural Sortase A Inhibitors” (International Journal of Molecular Sciences, 2017).

Entries after “also recorded” stand apart in the source; their conditions may differ. Like-named read-outs stand apart in the source and are kept apart here.

One series concerns the target T1, SrtA (Staphylococcus aureus, UniProt Q2FV99).
T1 construct: purchased Anaspec, San Jose, CA, USA
Nature of the series: Sortase A activity assay (FRET, SensoLyte 520 kit). The class given is biochemical, S. aureus. Particulars: for SrtA inhibitory activity relative to myricetin (fold lower; myricetin IC50 fold lower than this compound): ratio of IC50 values to myricetin. Here is the method:
The inhibitory activity of all of the compounds was determined by quantifying the increase in fluorescence intensity upon a cleavage 5-FAM/QXL® FRET substrate using a SensoLyte® 520 Sortase A Activity Assay Kit (Anaspec, San Jose, CA, USA). According to kit protocol, reactions were performed in a 96-well plate, with each well containing 10 μL test compound solution, 40 μL enzyme solution, and 50 μL sortase substrate solution. All compounds were dissolved in dimethyl sulfoxide (DMSO) and diluted with sterilized distilled water. The final concentration of DMSO was 1%. Each compound diluted in buffer to the tested concentration and was checked for intrinsic fluorescence. According to the kit protocol, we used the enzyme without the test compound as a control, a 1% DMSO control, and a substrate control. We used the kit inhibitor, 4-hydroxymercuribenzoic acid (HMB), as the positive control. Reactions were carried out for 1 h at room temperature and analyzed fluorometrically (SpectraMAX Gemini XS, CA, USA) at Ex/Em = 490 nm/520 nm. All reported values are the means of triplicate assays.

Another series in a line: in vivo. Particulars: in vivo. Here is the method:
(§1) The Daphnia magna test was performed in 4 mL 12-tissue culture wells, using 10 daphnids/well, with each sample being tested in duplicate. […] All experiments were conducted in the dark, in a plant growth chamber (Sanyo MLR-351 H, San Diego, CA, USA) at 25 ± 1 °C [32, 33].
(§2) Statistical analysis of the inhibitory effect on SrtA and the Daphnia magna bioassay was performed using GraphPad Prism version 5.01 software (GraphPad Software, Inc., La Jolla, CA, USA). A student’s t-test (p < 0.05) was applied in order to analyze the results obtained from replicates. […] The inhibition (I %) and lethality percentage (L %) values were calculated and plotted against the logarithm of concentrations and the corresponding curves were calculated using the least squares fit method. […] Whenever the obtained results permitted, the upper and lower limits of the 95% confidence interval (95% CI) and the correlation coefficient (r^2) were calculated.

The subject of another series is Daphnia magna. Put plainly: in vivo. Particulars: for Maximum lethality: after 48 h, tested 0.5 to 100 μM; for Highest lethality: after 48 h of exposure at 100 μM; for Toxicity on Daphnia magna (result in words): in vivo. Here is the method: as §1, §2
A short description of series [1]: Solubility in water (observation during FRET testing).

T1 sequence (Q2FV99 whole entry): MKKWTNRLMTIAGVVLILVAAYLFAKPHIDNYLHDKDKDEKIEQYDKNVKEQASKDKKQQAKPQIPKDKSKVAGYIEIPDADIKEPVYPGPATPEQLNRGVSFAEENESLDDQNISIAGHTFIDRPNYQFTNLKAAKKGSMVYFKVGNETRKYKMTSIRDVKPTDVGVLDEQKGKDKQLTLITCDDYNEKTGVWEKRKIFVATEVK

A word on the inhibition: it is the change of the read-out against control, counted positive when it falls. Low values mean little suppression, high ones strong suppression. With `C[C@@H]1CC[C@H]2[C@@H](C)C(=O)O[C@@H]3O[C@@]4(C)CC[C@@H]1[C@]32OO4` [Artemisinin, reference compound], on SrtA, the “SrtA inhibition (result in words)” value is “statistically significant SrtA inhibition” and the inhibition at 50 µM is 5.32%.
As a reminder, the LC50 is the concentration that kills 50% of the test population. The low end stands for greater toxicity, the high end for lower toxicity. Compound `O=c1cc(-c2ccccc2)oc2cc(O)cc(O)c12` [Chrysin] gave an LC50 at 48 h in the series “in vivo” of 17.7 µM. Besides, the “SrtA inhibition (result in words)” value at SrtA was “statistically significant SrtA inhibition”.
One may read the IC50 as the concentration that inhibits the measured activity by half. With `O=c1ccc2cc(O)c(O)cc2o1` [Esculetin], in the series on Daphnia magna, the Maximum lethality was no more than 30% and the Highest lethality is no more than 30%. Moreover, on SrtA, the IC50 came to 36.2 µM, the “SrtA inhibition (result in words)” value is “statistically significant SrtA inhibition”, the inhibition at 250 µM came to 83.6% and the “SrtA inhibitory activity relative to myricetin (fold lower; myricetin IC50 fold lower than this compound)” value was “eight-fold”.
Turning to `O=c1ccc2cc(O[C@@H]3O[C@H](CO)[C@@H](O)[C@H](O)[C@H]3O)c(O)cc2o1` [Esculin, Esculin sesquihydrate], the “SrtA inhibition (result in words)” value at SrtA is recorded as “low SrtA inhibition”.
Compound `O=c1c(-c2ccc(O)cc2)coc2cc(O)cc(O)c12` [Genistein] registered an inhibition at 500 µM against SrtA of 9.63%.
For the compound `O=C(O)c1cc[c]([Hg][OH])cc1` [HMB, 4-hydroxymercuribenzoic acid, reference compound], the “Inhibition (%)” value on SrtA (5 μM, after 1 h of incubation) was determined as 93.87%. In addition, at SrtA (after 1 h of incubation, read-out: IC50), the IC50 turned out to be 0.114 µM.
Consider `O=c1c(O)c(-c2cc(O)c(O)c(O)c2)oc2cc(O)cc(O)c12` [Myricetin], for which, in the series with Daphnia magna, the Maximum lethality is no more than 30% and the Highest lethality is recorded as no more than 30%. Also, at SrtA, inhibition was half-maximal at 4.63 µM (IC50), the “SrtA inhibition (result in words)” value was “statistically significant SrtA inhibition” and the inhibition at 100 µM worked out at 92%.
In the series with Daphnia magna, `COc1cc2c(cc1OC)-c1cc3ccc(OC)c(OC)c3c[n+]1CC2` [Palmatine chloride] returned a Maximum lethality of no more than 30% and a Highest lethality of no more than 30%. Also, at SrtA, 52.8 µM corresponded to half-maximal inhibition (IC50), the “SrtA inhibition (result in words)” value is “statistically significant SrtA inhibition”, at 500 µM the inhibition was 85.3% and the “SrtA inhibitory activity relative to myricetin (fold lower; myricetin IC50 fold lower than this compound)” value is on record as “eleven-fold”.
Consider `O=C(/C=C/C=C/c1ccc2c(c1)OCO2)N1CCCCC1` [Piperine], for which, in series [1], the “Solubility in water (result in words)” value is “low solubility in water; also recorded: low aqueous solubility”. In the series with Daphnia magna, the “Toxicity on Daphnia magna (result in words)” value was “high level of toxicity”. In the series “in vivo”, the LC50 at 24 h was 145 µM and the LC50 at 48 h was 3.45 µM. At SrtA, the “SrtA inhibition (result in words)” value is on record as “statistically significant SrtA inhibition” and the inhibition at 10 µM came out at 14.9%.
As for `COc1cc([C@@H]2c3cc4c(cc3[C@H](O)[C@H]3COC(=O)[C@H]23)OCO4)cc(OC)c1OC` [Podophyllotoxin], the “Solubility in water (result in words)” value in series [1] is given as “low aqueous solubility”. In addition, the “Toxicity on Daphnia magna (result in words)” value in the series on Daphnia magna is recorded as “high level of toxicity”. Further, the LC50 at 48 h in “in vivo” came to 6.47 µM. At SrtA, the “SrtA inhibition (result in words)” value is “statistically significant SrtA inhibition” and 50 µM produced 26.4% inhibition.
Consider `O=C(O)[C@]1(O)C[C@@H](O)[C@@H](O)[C@H](O)C1` [Quinic acid], for which, on SrtA, the “SrtA inhibition (result in words)” value is “statistically significant SrtA inhibition” and the inhibition at 500 µM was 19.6%.
On to `C[C@@H]1O[C@@H](OC[C@H]2O[C@@H](Oc3c(-c4ccc(O)c(O)c4)oc4cc(O)cc(O)c4c3=O)[C@H](O)[C@@H](O)[C@@H]2O)[C@H](O)[C@H](O)[C@H]1O` [Rutin trihydrate], for which, in the series on Daphnia magna, the Maximum lethality was no more than 30% and the Highest lethality is reported as no more than 30%. In addition, at SrtA, the “SrtA inhibition (result in words)” value is on record as “statistically significant SrtA inhibition” and 500 µM produced 28.7% inhibition.
As to `C[C@@H]1O[C@@H](OC[C@H]2O[C@@H](Oc3c(-c4ccc(OCCO)c(OCCO)c4)oc4cc(OCCO)cc(O)c4c3=O)[C@H](O)[C@@H](O)[C@@H]2O)[C@H](O)[C@H](O)[C@H]1O` [Troxerutin], in the series on Daphnia magna, the Maximum lethality is no more than 30% and the Highest lethality is no more than 30%. In addition, at SrtA, the “SrtA inhibition (result in words)” value is given as “statistically significant SrtA inhibition” and the inhibition at 500 µM was found to be 23.5%.
Take `O=c1ccc2ccc(O)cc2o1` [Umbelliferone]: in “in vivo”, the LC50 at 48 h worked out at 105 µM. Besides, on SrtA, the “SrtA inhibition (result in words)” value is given as “statistically significant SrtA inhibition; also recorded: small inhibitory effect” and the inhibition at 250 µM amounted to 4.04%.
For the compound `O=C(O)/C=C/c1ccc(O)c(O)c1` [caffeic acid, Caffeic acid], the “SrtA inhibition (result in words)” value at SrtA was “inactive”.
Turning to `O=c1ccc2ccccc2o1` [coumarin, Coumarin], the “SrtA inhibition (result in words)” value on SrtA is “small inhibitory effect”.
Compound `C[C@@H]1O[C@@H](O[C@H]2[C@H](Oc3cc(O)c4c(c3)O[C@H](c3ccc(O)cc3)CC4=O)O[C@H](CO)[C@@H](O)[C@@H]2O)[C@H](O)[C@H](O)[C@H]1O` [naringin, Naringin] gave a Maximum lethality in the series on Daphnia magna of no more than 30%. For the same compound, the “SrtA inhibition (result in words)” value on SrtA is “statistically significant SrtA inhibition”.
As to `COc1cc(/C=C/C(=O)O)ccc1O` [trans-ferulic acid, trans-Ferulic acid], the “SrtA inhibition (result in words)” value at SrtA is “inactive”.
